Source: US9896441B2 (Lycera Corporation, priority 2014, dated 2018)

Key:
RORγ-LBD = molecular target: T1, RORγ-LBD (Homo sapiens, UniProt P51449); experiment: RORγ-Ligand Binding Domain (LBD) TR-FRET Assay; format: biochemical; conditions: RORγ-LBD TR-FRET assay; for TR-FRET Assay Max Response: maximum response;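 as to TR-FRET Assay Max Response: 665/615 nm signal ratio set to 100 without ursolic acid or test compound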
T1 construct: made in house; host or cells: SF9 cells (baculovirus); used as diluted lysate
T1 sequence (P51449 269-508 limits assumed): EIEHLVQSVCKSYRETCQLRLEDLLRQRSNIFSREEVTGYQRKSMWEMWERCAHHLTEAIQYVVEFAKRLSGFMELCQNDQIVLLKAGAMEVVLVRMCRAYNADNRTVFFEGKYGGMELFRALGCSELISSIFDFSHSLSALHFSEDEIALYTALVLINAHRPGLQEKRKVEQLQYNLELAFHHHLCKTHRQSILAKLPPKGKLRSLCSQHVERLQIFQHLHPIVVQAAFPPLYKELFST
Summary of the method: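 TR-FRET read-out using a biotin-tagged SRC1 coactivator LXXLL peptide (200 nM final), with the antagonist ursolic acid present at 2 μM final. Receptor is His-tagged LBD expressed in SF9 cells, ~3 nM final in pH 7.0 Tris/KCl/EDTA/DTT/BSA buffer; compounds in 1% DMSO final.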

Gal4-RORγ-LBD = molecular target: T2, Gal4-RORγ-LBD (Homo sapiens, UniProt P51449); experiment: Gal4-RORγ Luciferase Reporter Assay in HEK-293T Cells; format: cell-based; conditions: HEK-293 cells, luciferase reporter, in presence of ursolic acid; for Gal4-RORγ Assay Max Response: maximum response
T2 construct: expressed in transfected cells
T2 sequence (P51449 269-508 limits assumed): T1 sequence (P51449 269-508 limits assumed)
Summary of the method: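 Max Response was taken as the upper plateau of a 4-parameter logistic fit of luciferase signal, normalized to 100 for wells without ursolic acid or compound. Transiently Gal4-RORγ-LBD/Gal4-luc transfected HEK-293 cells carrying […] ursolic acid were incubated with test compounds (0.2% DMSO) overnight at 37 °C and read with One-Glo.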

EC50 (RORγ-LBD)	EC50 (Gal4-RORγ-LBD)	Structure (SMILES)	TR-FRET Assay Max Response (RORγ-LBD)	Gal4-RORγ Assay Max Response (Gal4-RORγ-LBD)
< 500 nM	500 to 5000 nM	C[C@@H]1[C@@H](O)Cc2ccc(/C=C/c3c(F)cccc3Cl)cc2N1S(=O)(=O)c1cccc(C(F)(F)F)c1 (racemic) [Example 176, rac-(2R,3S)-7-((E)-2-Chloro-6-fluorostyryl)-2-methyl-1-((3-(trifluoromethyl)phenyl)sulfonyl)-1,2,3,4-tetrahydroquinolin-3-ol]	*** (a value in the range of greater than 150 to 200)	** (a value in the range of greater than 90 to 150)
< 500 nM	500 to 5000 nM	C/C(=C\c1ccc2c(c1)N(S(=O)(=O)c1cccc(C(F)(F)F)c1)CCC2=O)c1c(F)cccc1Cl [Example 188, (E)-7-(2-(2-chloro-6-fluorophenyl)prop-1-en-1-yl)-1-((3-(trifluoromethyl)phenyl)sulfonyl)-2,3-dihydroquinolin-4(1H)-one]	**** (a value greater than 200)	** (a value in the range of greater than 90 to 150)
< 500 nM	500 to 5000 nM	COc1cc(S(=O)(=O)N2c3cc(/C=C(\C)c4c(F)cccc4Cl)ccc3C[C@H](O)[C@H]2C)ccc1F (racemic) [Example 175, rac-(2R,3S)-7-((E)-2-(2-Chloro-6-fluorophenyl)prop-1-en-1-yl)-1-((4-fluoro-3-methoxyphenyl)sulfonyl)-2-methyl-1,2,3,4-tetrahydroquinolin-3-ol]	** (a value in the range of greater than 90 to 150)	* (a value in the range of 30 to 90)
< 500 nM	< 500 nM	CCOC(=O)C(C)(C)C[C@H]1C[C@H](S(=O)(=O)c2cccc(C(F)(F)F)c2)c2cc(/C=C(\C)c3c(F)cccc3Cl)ccc2O1 [Example 186M, ethyl 3-((2S,45)-6-((E)-2-(2-chloro-6-fluorophenyl)prop-1-en-1-yl)-4-((3-(trifluoromethyl)-phenyl)sulfonyl)chroman-2-yl)-2,2-dimethylpropanoate]	*** (a value in the range of greater than 150 to 200)	* (a value in the range of 30 to 90)
